Earlier results on two compounds are cited in patent US20050250828A1 (Entire Interest, priority 2004, published 2005).

Structures are written as SMILES.

The conditions of series [1]: oral administration.

Turning to `CCOc1nc2cccc(C(=O)O)c2n1Cc1ccc(-c2ccccc2-c2nnn[nH]2)cc1` [Candesartan, 2-ethoxy-1-[[2′-(1H-tetrazol-5-yl)biphenyl-4-yl]methyl]-1H-benzimidazole-7-carboxylic acid], the “absorption when administered orally” value in series [1] is “poorly absorbed”.

On to `CCOc1nc2cccc(C(=O)OC(C)OC(=O)OC3CCCCC3)c2n1Cc1ccc(-c2ccccc2-c2nnn[nH]2)cc1` (racemic) [candesartan cilexetil, (±)-1-[[(cyclohexyloxy)carbonyl]oxy]ethyl-2-ethoxy-1-[[2′-(1H-tetrazol-5-yl)[1,1′biphenyl]-4-yl]methyl]-1H-benzimidazole-7-carboxylate], for which the solubility in methanol entry (methanol) is recorded as “sparingly soluble”. Moreover, the solubility in water entry (water) was “sparingly soluble”.
